Results published in patent US12502361B2, “Method for treating dengue virus infection” (priority 2021, dated 2025).
Where two headings read alike, the source gives them in different places.

Legend:
viral dsRNA = test: dsRNA immunostaining in DENV2-infected BHK-21 cells; format: cell-based, Dengue virus serotype 2; conditions: BHK-21 cells pretreated 1 h, DENV2 infection 6 h
Protocol: DAPI was used to label nuclear DNA. […] Scale bar: 100 μm.
Cells were washed with ice-cold PBS 3 times and fixed with 4% paraformaldehyde (Sigma-Aldrich) at room temperature for 15 minutes. Then, the cells were washed 3 times with ice-cold PBS and permeabilized with permeabilization buffer (PBS containing 1% Triton X-100) at room temperature for 5 minutes. The cells were then washed 3 times with ice-cold PBS and immunoblocked with blocking buffer (PBS containing 1% BSA and 0.01% Triton X-100) at 4° C. for 30 minutes. Next, the cells were washed 3 times with ice-cold PBS and immunohybridized with mouse anti-dsRNA J2 primary antibody at 4° C. overnight. Subsequently, the cells were washed 3 times with ice-cold PBS and stained with Alexa Fluor 488-conjugated goat anti-mouse antibody (Thermo Fisher Scientific) at room temperature for 15 minutes. The cells were washed 3 times with ice-cold PBS and then visualized with fluorescence or confocal microscopy. DAPI (Sigma-Aldrich) was used for nuclear staining.
Following endocytosis, the viral genome is released into the cytoplasm and undergoes genome replication (Solomon et al., J Infect, 42, 2001, 104-115).

endosomal acidification = test: Acridine orange staining of endosomal acidification in DENV-infected BHK-21 cells; format: cell-based, hamster; conditions: BHK-21 cells pretreated 1 h, DENV infection 2 h
Protocol: Hoechst was used to label nuclear DNA. Scale bar: 100 μm.
Cells were washed with HBSS (Thermo Fisher Scientific) once and then stained with acridine orange agent (Sigma-Aldrich) and Hoechst 33258 (Thermo Fisher Scientific) in an incubator at 37° C. in 5% CO2. After 45 minutes, the cells were washed with HBSS once and rinsed with HBSS. Subsequently, cells were visualized with a fluorescence microscope (EVOS). Hoechst 33258 was used for nuclear staining.
The endosomal acidification step is critical for DENV uncoating to release the viral genome for further replication in the cytoplasm (Solomon et al., J Infect, 42, 2001, 104-115). Therefore, the pH-sensitive dye acridine orange (AO) was used to explore whether propofol affects the early stages of DENV infection accordingly (Kao et al., PLoS Negl Trop Dis, 12, 2018, e0006715).

DENV2 = conditions: BHK-21 cells pretreated 1 h, DENV2 MOI=1, 24 h; doses of 5, 10, 25 and 50 μg/ml
Protocol: Baby hamster kidney (BHK)-21 fibroblasts (ATCC, CCL10) were maintained in Dulbecco's modified Eagle's medium (DMEM; Thermo Fisher Scientific) containing 10% heat-inactivated fetal bovine serum (FBS, Biological Industries) and 1% penicillin-streptomycin (Thermo Fisher Scientific) at 37° C. in 5% CO2. […] The Aedes albopictus clone mosquito C6/36 cells (ATCC, CRL1660) were maintained in Minimum Essential Medium (MEM; Thermo Fisher Scientific) containing 10% heat-inactivated FBS, 1% penicillin-streptomycin (Thermo Fisher Scientific), 1% sodium pyruvate (Cat#11360-070, Thermo Fisher Scientific), 1% 4-(2-hydroxyethyl) piperazineethanesulfonic acid (HEPES; Cat#15630-080, Thermo Fisher Scientific) and 1% nonessential amino acids (NEAA; Cat#11140-035, Thermo Fisher Scientific) at 28° C. in 5% CO2. Dengue virus serotype 2 (DENV2, strain PL046) was obtained from Center Disease Control in Taiwan and propagated in a C6/36 cell monolayer at a multiplicity of infection (MOI) of 0.01. After incubation (28° C. in 5% CO2) for 5 days, the viral supernatants were collected and filtered with a 0.22 μm filter and then stored at −80° C. until use. Viral titers were determined by plaque assay using BHK-21 cells.
BHK-21 cells were grown in a monolayer in a 12-well plate at 7×10^4 cells/well. […]

BHK-21 cells = conditions: propofol 1 to 50 μg/ml, 24 h
Protocol: Quantitative data are presented as the mean±SD of at least three independent experiments (n=3). ***p<0.001. ns, not significant.
According to the manufacturer's instructions, cell cytotoxicity was assessed using Cytotoxicity Detection Kit assays (Roche Diagnostics, Lewes, UK).

phospho-STAT1 and STAT1 = conditions: RAW 264.7 cells, propofol 10 or 25 μg/ml, DENV2 MOI=10, 24 h
Protocol: (§1) RAW 264.7 cells were pretreated without or with propofol (10 or 25 μg/ml) followed by infection with DENV2 (MOI=10) for 24 h. […] Quantitative data are presented as the mean±SD of the experiments (n=3). *p<0.05; ***p<0.001.
(§2) Cells were collected and extracted with lysis buffer containing a protease inhibitor cocktail (Sigma-Aldrich). The processed proteins were separated by 10% SDS polyacrylamide gel electrophoresis followed by transfer to a polyvinylidene difluoride (PVDF) membrane (Millipore). Then, the PVDF membrane was blocked with 5% nonfat milk in 0.05% Tween-20-containing Tris-buffer-based saline (TBS-T) at room temperature for 1 h. Next, the membrane was washed three times with TBS-T buffer and immunohybridized with the indicated primary antibodies at 4° C. overnight. Then, the membrane was washed with TBS-T buffer three times, followed by incubation with the indicated HRP-conjugated secondary antibodies at room temperature for 1 h. The antibody-protein complexes on the PVDF membrane were detected using an ECL Western blot detection kit (PerkinElmer). The signals of the identified proteins were captured with a film exposure system.
(§3) In this study, RAW 264.7 cells were pretreated with or without propofol (10 or 25 μg/ml) followed by infection with DENV for 24 h.

TNF-α [1] = conditions: RAW 264.7 cells, propofol 10 or 25 μg/ml, DENV2 MOI=10, 24 h
Protocol: as §1
According to the manufacturer's instruction, samples were harvested, and the concentration of mouse TNFα was determined using ELISA kit (Cat#88-7324-88, eBioscience).
as §3

TNF-α [2] = conditions: cecal ligation and puncture-administrated rat liver; cited from earlier work
[3] = test system: luciferase-expressing DENV replicon; conditions: BHK-21-SGR replicon cells treated with or without propofol
Protocol: Baby hamster kidney (BHK)-21 fibroblasts (ATCC, CCL10) were maintained in Dulbecco's modified Eagle's medium (DMEM; Thermo Fisher Scientific) containing 10% heat-inactivated fetal bovine serum (FBS, Biological Industries) and 1% penicillin-streptomycin (Thermo Fisher Scientific) at 37° C. in 5% CO2. BHK-21 cells harboring a luciferase-expressing DENV replicon (BHK-D2-Fluc-SGR-Neo-1) were maintained in DMEM with 10% heat-inactivated FBS, 1% penicillin-streptomycin, and 0.4 mg/ml G418 agent (Cat# A1720, Sigma-Aldrich) at 37° C. in 5% CO2.
BHK-D2-Fluc-SGR-Neo-1 cells (replicons) were seeded in 96-well plates at 3,000 cells/well overnight.
To assess propofol's inhibitory activity on DENV infection, we next used BHK-21-SGR cells, a cellular replicon-based reporter assay, to examine propofol's translational targets.

DENV NS1 = conditions: BHK-21 cells pretreated 1 h, DENV2 MOI=1, 24 h post-infection
Protocol: as §2

TNF-α [4] = conditions: CoCl2-treated hypoxic BV2 microglia; cited from earlier work

SMILES	viral dsRNA expression (immunostaining, MFI) (viral dsRNA)	endosomal acidification (acridine orange staining) (endosomal acidification)	DENV virion release (viral titer, plaque assay) (DENV2)	cytotoxicity (LDH assay) (BHK-21 cells)	protein expressions of phospho-STAT1 and STAT1 (western blot) (phospho-STAT1 and STAT1)	mouse TNF-α production (ELISA) (TNF-α [1])	gene and cytokine productions of TNF-α (TNF-α [2])	luciferase activity of replicons (viral protein translation) [3]	viral NS1 protein expression (western blot) (DENV NS1)	gene and cytokine productions of TNF-α (TNF-α [4])
CO/C1=C\C(C)=C\[C@@H](C)[C@@H](O)[C@@H](C)C/C(C)=C/C=C/[C@H](OC)[C@@H]([C@@H](C)[C@@H](O)[C@H](C)[C@@]2(O)C[C@@H](O)[C@H](C)[C@@H](C(C)C)O2)OC1=O [Baf A1, bafilomycin A1]	reduced dsRNA expression	endosome acidification was blocked								
CC(C)c1cccc(C(C)C)c1O [propofol, 2,6-diisopropylphenol]	does not affect blocking DENV viral dsRNA replication	does not affect endosomal acidification	significantly (p<0.001) reduced DENV virion release	did not cause cytotoxicity	inhibited by propofol treatment	reduced the cytokine levels in a dose-dependent manner	reduces both the gene and cytokine productions of TNF-α	no remarkable difference	decreased in a dose-dependent manner	reduces both the gene and cytokine productions of TNF-α
